Calls of active or inactive are those of the source. The calls are words filed in the database; no cut-off is given here.
Key:
[1] = molecular target: Tyrosine-protein kinase JAK1 (Homo sapiens) (UniProt P23458); assay: Inhibition of human recombinant N-terminal GST-tagged JAK1 (850 to 1154 residue) expressed in baculovirus expression system at 100 uM using JAK1 peptide as substrate by mobility shift assay relative to control
[2] = test system: MCF7; assay: Cytotoxicity against human MCF7 cells assessed as reduction in cell proliferation measured after 72 hrs by WST8 assay; type: functional, cell-based; conditions: MCF7, 72 h
[3] = test system: MDA-MB-231; assay: Inhibition of JAK/STAT signaling in human MDA-MB-231 cells assessed as decrease in STAT3 phosphorylation by measuring phosphorylated intensity level at 2 uM incubated for 2 hrs by Western blot analysis (reference value: 100%); type: cell-based; set-up: scale not given: the % may be the effect or the level left
[4] = test system: MDA-MB-231; assay: Cytotoxicity against human MDA-MB-231 cells assessed as reduction in cell proliferation measured after 72 hrs by WST8 assay; type: functional, cell-based; conditions: MDA-MB-231, 72 h
[5] = test system: MDA-MB-231; assay: Inhibition of JAK/STAT signaling in human MDA-MB-231 cells assessed as decrease in STAT3 phosphorylation by measuring phosphorylated intensity level at 4 uM incubated for 2 hrs by Western blot analysis (reference value: 100%); type: cell-based; set-up: scale not given: the % may be the effect or the level left
[6] = test system: MCF7; assay: Effect on total STAT3 level in IL-6 induced human MCF7 cells at 0.5 to 4 uM preincubated for 1 hr followed by IL-6 stimulation and measured after 1 hr by Western blot analysis; type: ADME, cell-based; conditions: mcf7, 1 h
[7] = test system: A549; assay: Cytotoxicity against human A549 cells assessed as reduction in cell proliferation measured after 72 hrs by WST8 assay; type: functional, cell-based; conditions: A549, 72 h
[8] = test system: MDA-MB-231; assay: Inhibition of JAK/STAT signaling in human MDA-MB-231 cells assessed as decrease in STAT3 phosphorylation by measuring phosphorylated intensity level at 0.5 uM incubated for 2 hrs by Western blot analysis (reference value: 100%); type: cell-based; set-up: scale not given: the % may be the effect or the level left
[9] = test system: MDA-MB-231; assay: Inhibition of JAK/STAT signaling in human MDA-MB-231 cells assessed as decrease in STAT3 phosphorylation by measuring phosphorylated intensity level at 1 uM incubated for 2 hrs by Western blot analysis (reference value: 100%); type: cell-based; set-up: scale not given: the % may be the effect or the level left
[10] = test system: MDA-MB-231; assay: Inhibition of JAK/STAT signaling in human MDA-MB-231 cells assessed as decrease in STAT3 phosphorylation incubated for 2 hrs by Western blot analysis; type: cell-based
[11] = molecular target: T1, Tyrosine-protein kinase JAK3 (Homo sapiens) (UniProt P52333); assay: Inhibition of human recombinant N-terminal His-tagged JAK3 (795 to 1124 residue) expressed in baculovirus infected Sf21 insect cells up to 100 uM using Srctide as substrate by mobility shift assay
T1 sequence (whole entry): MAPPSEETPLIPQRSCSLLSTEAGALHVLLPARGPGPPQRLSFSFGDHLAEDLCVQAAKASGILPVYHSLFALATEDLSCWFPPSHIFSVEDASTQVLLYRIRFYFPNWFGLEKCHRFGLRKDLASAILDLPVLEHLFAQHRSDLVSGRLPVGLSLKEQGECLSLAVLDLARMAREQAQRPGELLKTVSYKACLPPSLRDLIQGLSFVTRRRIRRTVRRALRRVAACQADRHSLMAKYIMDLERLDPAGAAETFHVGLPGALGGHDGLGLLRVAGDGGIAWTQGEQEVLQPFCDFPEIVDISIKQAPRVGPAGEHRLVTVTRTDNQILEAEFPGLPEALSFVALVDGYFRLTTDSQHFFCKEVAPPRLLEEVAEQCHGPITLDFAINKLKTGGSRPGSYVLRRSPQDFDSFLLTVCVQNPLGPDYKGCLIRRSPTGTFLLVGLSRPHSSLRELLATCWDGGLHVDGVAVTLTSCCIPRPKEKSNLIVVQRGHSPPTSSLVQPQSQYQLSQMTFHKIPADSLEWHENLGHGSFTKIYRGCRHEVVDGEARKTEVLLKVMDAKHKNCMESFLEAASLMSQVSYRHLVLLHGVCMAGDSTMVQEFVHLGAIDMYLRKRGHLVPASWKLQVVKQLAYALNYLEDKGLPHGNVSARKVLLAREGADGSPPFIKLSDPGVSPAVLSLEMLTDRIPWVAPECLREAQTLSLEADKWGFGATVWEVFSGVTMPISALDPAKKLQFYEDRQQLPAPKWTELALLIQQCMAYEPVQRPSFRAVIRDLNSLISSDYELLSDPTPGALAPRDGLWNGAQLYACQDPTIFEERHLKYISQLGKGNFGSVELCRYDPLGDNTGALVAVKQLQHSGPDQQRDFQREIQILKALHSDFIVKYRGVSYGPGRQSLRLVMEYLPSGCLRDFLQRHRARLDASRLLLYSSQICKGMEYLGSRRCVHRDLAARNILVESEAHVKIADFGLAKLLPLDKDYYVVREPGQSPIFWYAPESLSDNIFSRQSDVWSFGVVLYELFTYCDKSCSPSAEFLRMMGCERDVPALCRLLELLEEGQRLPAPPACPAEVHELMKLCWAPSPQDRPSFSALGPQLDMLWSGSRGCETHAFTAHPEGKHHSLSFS

[12] = molecular target: Tyrosine-protein kinase JAK2 (Homo sapiens) (UniProt O60674); assay: Inhibition of human recombinant N-terminal His-tagged JAK2 (826 to 1132 residue) expressed in baculovirus expression system at 100 uM using Srctide as substrate by mobility shift assay relative to control
[13] = molecular target: T2, Signal transducer and activator of transcription 3 (Homo sapiens, UniProt P40763); assay: Inhibition of IL-6 induced STAT3 phosphorylation at Tyr705 residue in human MCF7 cells at 10 uM preincubated for 1 hr followed by IL-6 stimulation and measured after 1 hr by Western blot analysis relative to control; type: cell-based
[14] = molecular target: T2, Signal transducer and activator of transcription 3; assay: Inhibition of IL-6 induced STAT3 phosphorylation at Tyr705 residue in human MCF7 cells at 1 uM preincubated for 1 hr followed by IL-6 stimulation and measured after 1 hr by Western blot analysis relative to control; type: cell-based
[15] = molecular target: T2, Signal transducer and activator of transcription 3; assay: Inhibition of IL-6 induced STAT3 phosphorylation at Tyr705 residue in human MCF7 cells assessed as phosphorylation intensity level at 4 uM preincubated for 1 hr followed by IL-6 stimulation and measured after 1 hr by Western blot analysis; type: cell-based; set-up: scale not given: the % may be the effect or the level left
[16] = molecular target: T2, Signal transducer and activator of transcription 3; assay: Inhibition of FAM-G(py)LPQTV-NH2 binding to GST-tagged STAT3-SH2 domain (unknown origin) preincubated for 15 mins followed by FAM-G(py)LPQTV-NH2 addition and measured after 30 mins by TR-FRET assay
[17] = molecular target: T2, Signal transducer and activator of transcription 3; assay: Inhibition of IL-6 induced STAT3 phosphorylation at Tyr705 residue in human MCF7 cells assessed as phosphorylation intensity level at 2 uM preincubated for 1 hr followed by IL-6 stimulation and measured after 1 hr by Western blot analysis; type: cell-based; set-up: scale not given: the % may be the effect or the level left
[18] = molecular target: T2, Signal transducer and activator of transcription 3; assay: Inhibition of IL-6 induced STAT3 phosphorylation at Tyr705 residue in human MCF7 cells assessed as phosphorylation intensity level at 1 uM preincubated for 1 hr followed by IL-6 stimulation and measured after 1 hr by Western blot analysis; type: cell-based; set-up: scale not given: the % may be the effect or the level left
[19] = molecular target: T2, Signal transducer and activator of transcription 3; assay: Inhibition of IL-6 induced STAT3 phosphorylation at Tyr705 residue in human MCF7 cells assessed as phosphorylation intensity level at 0.5 uM preincubated for 1 hr followed by IL-6 stimulation and measured after 1 hr by Western blot analysis; type: cell-based; set-up: scale not given: the % may be the effect or the level left
[20] = molecular target: Tyrosine-protein kinase JAK2 (Homo sapiens) (UniProt O60674); assay: Inhibition of IL-6 induced JAK2 phosphorylation at Tyr1007/1008 residue in human MCF7 cells preincubated for 1 hr followed by IL-6 stimulation and measured after 1 hr by Western blot analysis; type: cell-based
[21] = molecular target: T2, Signal transducer and activator of transcription 3; assay: Inhibition of IL-6 induced STAT3 phosphorylation at Tyr705 residue in human MCF7 cells preincubated for 1 hr followed by IL-6 stimulation and measured after 1 hr by Western blot analysis; type: cell-based
[22] = molecular target: T3, Signal transducer and activator of transcription 1-alpha/beta (Homo sapiens) (UniProt P42224); assay: Inhibition of FAM-G(py)DKPHVL-NH2 binding to GST-tagged STAT1-SH2 domain (unknown origin) preincubated for 15 mins followed by FAM-G(py)DKPHVL-NH2 addition and measured after 30 mins by TR-FRET assay
T3 sequence (whole entry): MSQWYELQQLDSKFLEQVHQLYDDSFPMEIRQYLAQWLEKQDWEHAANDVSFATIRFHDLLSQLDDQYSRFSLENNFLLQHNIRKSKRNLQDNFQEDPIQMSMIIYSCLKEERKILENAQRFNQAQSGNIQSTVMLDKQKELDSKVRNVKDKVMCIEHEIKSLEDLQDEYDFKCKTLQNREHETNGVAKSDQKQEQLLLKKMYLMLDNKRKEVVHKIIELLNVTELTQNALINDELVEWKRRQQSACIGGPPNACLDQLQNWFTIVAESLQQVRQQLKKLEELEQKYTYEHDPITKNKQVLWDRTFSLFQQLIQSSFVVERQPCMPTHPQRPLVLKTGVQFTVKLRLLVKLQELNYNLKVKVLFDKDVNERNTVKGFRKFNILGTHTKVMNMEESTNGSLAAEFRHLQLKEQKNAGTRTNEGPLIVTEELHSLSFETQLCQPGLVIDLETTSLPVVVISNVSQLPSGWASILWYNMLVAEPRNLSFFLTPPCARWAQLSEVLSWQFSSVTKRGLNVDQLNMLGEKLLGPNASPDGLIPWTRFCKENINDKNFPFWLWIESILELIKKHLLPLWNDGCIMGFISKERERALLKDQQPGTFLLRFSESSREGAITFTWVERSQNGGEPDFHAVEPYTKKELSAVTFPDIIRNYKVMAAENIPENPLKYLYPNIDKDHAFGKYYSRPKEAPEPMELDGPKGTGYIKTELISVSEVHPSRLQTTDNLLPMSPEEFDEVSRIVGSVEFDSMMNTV

T2 sequence (P40763 whole entry): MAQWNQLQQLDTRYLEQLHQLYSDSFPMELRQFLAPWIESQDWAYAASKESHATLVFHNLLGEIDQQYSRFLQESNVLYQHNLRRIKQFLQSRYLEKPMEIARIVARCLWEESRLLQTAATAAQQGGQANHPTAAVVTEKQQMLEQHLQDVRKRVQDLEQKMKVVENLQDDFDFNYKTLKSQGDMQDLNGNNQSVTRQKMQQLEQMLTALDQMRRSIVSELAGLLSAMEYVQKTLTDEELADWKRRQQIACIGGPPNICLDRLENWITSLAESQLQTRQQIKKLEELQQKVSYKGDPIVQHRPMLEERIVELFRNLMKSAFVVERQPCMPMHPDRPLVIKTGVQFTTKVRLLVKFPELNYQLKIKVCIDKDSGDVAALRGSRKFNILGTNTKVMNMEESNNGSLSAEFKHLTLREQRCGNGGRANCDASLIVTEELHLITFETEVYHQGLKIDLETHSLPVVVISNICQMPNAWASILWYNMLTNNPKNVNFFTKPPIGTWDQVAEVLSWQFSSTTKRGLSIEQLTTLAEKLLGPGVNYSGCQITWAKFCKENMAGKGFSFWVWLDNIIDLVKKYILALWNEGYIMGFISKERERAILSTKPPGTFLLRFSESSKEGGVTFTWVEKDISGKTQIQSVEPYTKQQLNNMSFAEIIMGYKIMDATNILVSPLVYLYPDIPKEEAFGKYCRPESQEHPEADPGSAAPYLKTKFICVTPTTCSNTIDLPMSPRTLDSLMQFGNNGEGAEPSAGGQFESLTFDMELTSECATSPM
Chain of Tyrosine-protein kinase JAK2 (Homo sapiens) (O60674 whole entry): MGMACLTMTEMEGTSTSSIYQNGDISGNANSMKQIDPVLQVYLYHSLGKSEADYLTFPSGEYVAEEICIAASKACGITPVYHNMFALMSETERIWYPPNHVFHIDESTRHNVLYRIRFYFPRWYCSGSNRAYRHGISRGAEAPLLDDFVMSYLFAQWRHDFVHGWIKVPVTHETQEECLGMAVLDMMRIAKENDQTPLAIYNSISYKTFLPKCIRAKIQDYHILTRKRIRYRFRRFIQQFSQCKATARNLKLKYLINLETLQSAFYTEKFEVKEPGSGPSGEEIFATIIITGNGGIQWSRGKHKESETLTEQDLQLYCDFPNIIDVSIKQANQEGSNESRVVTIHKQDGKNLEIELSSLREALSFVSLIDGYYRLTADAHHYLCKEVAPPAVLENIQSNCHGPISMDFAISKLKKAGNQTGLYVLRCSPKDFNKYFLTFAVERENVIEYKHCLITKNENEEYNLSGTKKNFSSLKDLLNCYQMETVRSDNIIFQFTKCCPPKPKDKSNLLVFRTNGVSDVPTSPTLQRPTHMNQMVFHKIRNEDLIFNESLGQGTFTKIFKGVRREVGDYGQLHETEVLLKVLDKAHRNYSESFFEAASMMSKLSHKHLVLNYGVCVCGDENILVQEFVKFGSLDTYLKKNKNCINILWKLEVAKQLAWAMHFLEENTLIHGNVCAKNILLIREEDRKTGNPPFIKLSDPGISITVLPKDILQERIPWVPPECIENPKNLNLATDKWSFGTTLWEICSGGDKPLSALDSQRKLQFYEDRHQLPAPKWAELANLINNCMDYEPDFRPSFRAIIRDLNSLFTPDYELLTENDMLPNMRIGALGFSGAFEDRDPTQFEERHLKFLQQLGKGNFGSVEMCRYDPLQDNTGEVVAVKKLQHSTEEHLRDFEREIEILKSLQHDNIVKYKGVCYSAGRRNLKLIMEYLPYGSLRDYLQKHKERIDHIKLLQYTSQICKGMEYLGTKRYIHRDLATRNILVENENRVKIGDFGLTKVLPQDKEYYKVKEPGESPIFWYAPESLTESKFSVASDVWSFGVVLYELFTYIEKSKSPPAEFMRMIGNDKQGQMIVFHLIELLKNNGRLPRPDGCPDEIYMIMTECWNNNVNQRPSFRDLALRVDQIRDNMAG
Chain of Tyrosine-protein kinase JAK1 (Homo sapiens) (P23458 whole entry): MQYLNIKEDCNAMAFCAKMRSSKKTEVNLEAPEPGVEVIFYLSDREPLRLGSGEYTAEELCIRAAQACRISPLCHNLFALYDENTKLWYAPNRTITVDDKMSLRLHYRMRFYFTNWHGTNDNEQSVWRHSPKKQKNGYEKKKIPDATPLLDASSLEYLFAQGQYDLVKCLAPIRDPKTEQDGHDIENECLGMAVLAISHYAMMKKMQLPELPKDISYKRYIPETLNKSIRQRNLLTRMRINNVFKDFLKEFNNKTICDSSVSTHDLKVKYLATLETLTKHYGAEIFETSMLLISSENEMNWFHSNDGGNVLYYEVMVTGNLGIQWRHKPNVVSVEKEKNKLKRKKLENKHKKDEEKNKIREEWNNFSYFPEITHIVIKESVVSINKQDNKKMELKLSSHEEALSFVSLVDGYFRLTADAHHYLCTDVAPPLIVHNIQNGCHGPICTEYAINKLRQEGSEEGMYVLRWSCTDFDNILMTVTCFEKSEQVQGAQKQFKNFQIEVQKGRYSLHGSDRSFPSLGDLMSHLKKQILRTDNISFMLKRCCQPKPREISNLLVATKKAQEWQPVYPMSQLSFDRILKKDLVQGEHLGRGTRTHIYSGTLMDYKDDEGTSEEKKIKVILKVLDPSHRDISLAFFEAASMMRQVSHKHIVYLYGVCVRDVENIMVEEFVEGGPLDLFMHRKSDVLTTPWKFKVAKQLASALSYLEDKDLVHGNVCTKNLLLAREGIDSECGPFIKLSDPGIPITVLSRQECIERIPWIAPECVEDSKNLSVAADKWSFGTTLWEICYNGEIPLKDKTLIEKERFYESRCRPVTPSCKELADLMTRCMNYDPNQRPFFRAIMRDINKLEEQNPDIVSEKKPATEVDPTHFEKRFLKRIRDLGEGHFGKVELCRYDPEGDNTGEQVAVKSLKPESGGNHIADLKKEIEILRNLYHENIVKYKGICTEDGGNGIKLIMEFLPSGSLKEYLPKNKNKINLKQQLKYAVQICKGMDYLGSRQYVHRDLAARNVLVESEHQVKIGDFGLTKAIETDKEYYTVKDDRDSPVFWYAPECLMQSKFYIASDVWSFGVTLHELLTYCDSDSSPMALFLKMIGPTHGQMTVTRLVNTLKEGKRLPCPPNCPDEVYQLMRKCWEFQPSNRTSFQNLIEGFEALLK

CC(=O)c1cc2c(o1)C(=O)c1ccccc1C2=O [NAPABUCASIN]
inhibition [1]: 95.5% | IC50 [2]: 240 nM | Activity [3]: 48% | IC50 [4]: 250 nM | Activity [5]: 28% | Activity [6]: Non-Toxic | IC50 [7]: 120 nM | Activity [8]: 111% | Activity [9]: 107% | inhibition [10]: Dose-dependent effect | inhibition [11]: inactive | inhibition [12]: 84.7%

CC(C)=CCC1=C(O)C(=O)c2ccccc2C1=O [LAPACHOL]
inhibition [13]: inactive | IC50 [2]: > 30000 nM | IC50 [4]: > 30000 nM | IC50 [7]: > 30000 nM | inhibition [14]: inactive

C[C@H](O)c1cc2c(o1)C(=O)c1cccc(O)c1C2=O
inhibition [1]: 94.8% | Activity [15]: 3% | inhibition [16]: inactive | inhibition [13]: 100% | Activity [17]: 43% | Activity [18]: 75% | Activity [19]: 76% | IC50 [2]: 500 nM | inhibition [20]: Dose-dependent effect | Activity [3]: 21% | IC50 [4]: 410 nM | Activity [5]: 35% | IC50 [21]: 2000 nM | Activity [6]: Non-Toxic | IC50 [7]: 130 nM | inhibition [14]: Active | Activity [8]: 68% | Activity [9]: 78% | inhibition [10]: Dose-dependent effect | inhibition [11]: inactive | inhibition [22]: inactive | inhibition [12]: 80.6%

C[C@H](O)c1cc2c(o1)C(=O)c1c(O)cccc1C2=O
inhibition [13]: 100% | IC50 [2]: 1110 nM | IC50 [4]: 330 nM | IC50 [7]: 280 nM | inhibition [14]: Active

CC1(C)CCC2=C(O1)C(=O)c1ccccc1C2=O [ALPHA-LAPACHONE]
inhibition [13]: inactive | IC50 [2]: > 30000 nM | IC50 [4]: > 30000 nM | IC50 [7]: > 30000 nM | inhibition [14]: inactive

CC(=O)c1cc2c(o1)C(=O)c1cccc(O)c1C2=O
Activity [15]: 23% | Activity [17]: 38% | Activity [18]: 84% | Activity [19]: 107% | IC50 [2]: 51 nM | IC50 [4]: 170 nM | IC50 [21]: 2000 nM | Activity [6]: Non-Toxic | IC50 [7]: 44 nM

C[C@H](O)c1cc2c(o1)C(=O)c1ccccc1C2=O
Activity [15]: 35% | Activity [17]: 20% | Activity [18]: 23% | Activity [19]: 36% | IC50 [2]: 280 nM | IC50 [4]: 1590 nM | Activity [6]: Non-Toxic | IC50 [7]: 720 nM

CC1(C)CCC2=C(O1)c1ccccc1C(=O)C2=O [LAPACHONE]
inhibition [13]: inactive | IC50 [2]: 710 nM | IC50 [4]: 1390 nM | IC50 [7]: 1960 nM | inhibition [14]: inactive

From ChEMBL document CHEMBL4616624, “STAT3 inhibitory activity of naphthoquinones isolated from Tabebuia avellanedae” (Bioorg Med Chem, 2020)
